The target in one assay is T1, hPPARγ (Homo sapiens, UniProt P37231).
T1 construct: 175-477; expressed in transfected cells; host or cells: CHO cells, transient transfection
T1 sequence (P37231 175-477 isoform P37231-2): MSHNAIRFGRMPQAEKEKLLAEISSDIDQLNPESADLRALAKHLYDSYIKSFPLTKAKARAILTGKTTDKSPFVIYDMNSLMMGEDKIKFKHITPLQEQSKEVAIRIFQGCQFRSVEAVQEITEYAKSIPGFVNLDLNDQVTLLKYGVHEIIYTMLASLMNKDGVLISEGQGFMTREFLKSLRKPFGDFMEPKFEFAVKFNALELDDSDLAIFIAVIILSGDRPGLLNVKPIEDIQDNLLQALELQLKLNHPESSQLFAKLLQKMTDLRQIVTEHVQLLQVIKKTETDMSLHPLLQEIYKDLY
Nature of the assay: Crossreactive receptor transcriptional assay (Gal4 hybrid). In kind it is cell-based.

In another assay the target is T2, mRORγ (Mus musculus, UniProt P51450).
T2 construct: expressed in transfected cells; host or cells: CHO cells, transient transfection
The assay is described as follows: Transcriptional assay, Gal4-mRORγ with luciferase reporter in CHO cells. In kind it is cell-based. As to the method:
The complete Gal4-mRORγ nucleotide sequence is shown below:
A firefly luciferase reporter gene for Gal4 DBD hybrid receptors, such as Gal4-RORγ, contains five copies of the Gal4 17-mer response element in its promoter and the coding sequence for firefly luciferase (pG5-luc, Promega). CHO (Chinese Hamster Ovary) cells were cultured in Ham's F12 medium supplemented with 10% fetal calf serum (Gemini Biologicals), 10 μg/ml penicillin and streptomycin, and were maintained in a humidified 37° C. incubator (Thermo Electron, Steri-Cycle) with 5% CO2. 24 hours before transfection, cells were plated in T175 flasks (5×10^6 cells/flask) or T75 flasks (1.7×10^6 cells/flask). Transient transfection of CHO cells was performed using TransIT-CHO reagents (Minis, Madison, Wis.) with a mixing ratio of 2:6:1 between plasmid DNA (in μg), TransIT-CHO (in μl) and CHO-mojo (in μl).
Plates are maintained at 37° C. in a humidified atmosphere with 7% CO2 overnight. Four (4) hours after cell seeding, compounds dissolved in DMSO at 10 mM were added to cells at final concentrations of 20 micromolar (μM) to 20 nanomolar (nM) in 0.2% DMSO in triplicate plates. Approximately 40 hours later, cytotoxicity in the assay well was characterized by addition of the dye resazurin (O'Brien, Wilson et al. 2000) to a final concentration of 3 μM. […] Percent viability was determined as 2 hour fluorescence, minus background at t=0 hours, normalized to DMSO controls. For detection of luciferase activity, media was removed from plates after the measurement of resazurin conversion, and SteadyLite luciferase reagent (Perkin-Elmer) was added (30 μl/well). Luminescence is detected with a Victor 2-V plate reader (Perkin-Elmer) and normalized to luciferase activity of DMSO control wells alone.
(In general: Reporter assays use an easily measured gene product as a stand-in for the process of interest.)

A further assay addresses T3, mRORγ LBD (Mus musculus, UniProt P51450).
T3 construct: made in house; host or cells: Sf9 insect cells, baculovirus; cleared lysate used directly
T3 sequence (P51450 251-516): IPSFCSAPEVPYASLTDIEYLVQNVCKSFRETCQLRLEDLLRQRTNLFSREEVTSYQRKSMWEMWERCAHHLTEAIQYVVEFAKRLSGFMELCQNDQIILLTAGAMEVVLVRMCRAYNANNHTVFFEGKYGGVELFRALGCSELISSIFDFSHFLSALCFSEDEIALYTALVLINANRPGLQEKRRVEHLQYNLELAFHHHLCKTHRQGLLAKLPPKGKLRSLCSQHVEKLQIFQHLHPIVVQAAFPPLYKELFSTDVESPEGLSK
The assay is described as follows: Biochemical assay, coregulatory peptide recruitment to GST-RORγ LBD (FRET). An excerpt: GST-RORγ was generated by subcloning the RORγ-LBD into pET-41a, a vector which expresses GST fusion proteins in bacteria.
The cloning steps for GST-RORγ were as follows. The mRORγ LBD was excised from Gal4-mRORγ (see above for cloning steps) at BamHI and HindIII sites of Sequence 1 and cloned into the corresponding sites of pET-41a(+) (EMD Biosciences, San Diego, Calif.). A GST-mRORγ fragment was then excised from pET-41a(+) at XbaI and XhoI sites and cloned into a pcDNA3.1vector (Invitrogen, Carlsbad, Calif.) restricted at NheI and XhoI sites. Plasmid GST-mRORγ-pcDNA3.1 was used as a PCR template to generate a GST-mRORγ fragment that was later cloned into pENTR/D-TOPO vector (Invitrogen, Carlsbad, Calif.) by standard cloning techniques recommended by the manufacturer of the vector. The nucleotide sequence of GST-mRORγ is shown below:
For baculoviral expression of RORγ, the cDNA fragment of GST-RORγ— LBD, was subcloned from pET-41a into the pENTR/D-TOPO vector using a commercially-available kit (BaculoDirect, Invitrogen). Briefly, GST-RORγ carried by pENTR/D-TOPO was transfected into mono-layer Sf9 cells (8×10^5/well in 6-well plates) by Cellfectin (Invitrogen). Sf9 cells were incubated at 27° C. in a non-humidified incubator for 72 hours. Cell media was collected as P1 viral stock and used to further infect Sf9 cells to generate P2 and P3 virus. […] A plaque assay was performed to determine the titer of P3 virus and to isolate single plaques. P4 virus was generated from a single plaque and propagated on a larger scale.
Adherent SF9 cells were infected with baculovirus carrying GST-RORγ and were cultured for 72 hours. Sf9 cell were then subject to a brief sonication in a lysis buffer (20 mM phosphate, pH 6.8, 50 mM KCl, 50 mM NaCl, 0.5 mM EDTA, 50% glycerol, 0.001% NP-40 and 1 mM DTT) and centrifuged at 3000 rpm for 15 minutes. […] Cleared cell lysate was stored at −70° C. and is directly utilized in the coregulatory peptide recruitment assay.
The labeled probes anti-GST-APC and SA-RPE were purchased from Prozyme (San Leandro, Calif.). Compounds were added directly from a DMSO solution to a final concentration of 1-2% DMSO. Fluorescence was measured on a Wallac Victor 2 V plate reader equipped with a 670/40 nm filter (Omega Optical, Brattleboro, Vt.) for APC emission (Channel A) and a 600/25 bandpass filter for monitoring the RPE emission (Channel B).

Setting [1] is: Table 6, read-out: Potency (EC50) at hPPARγ.
Where [2] appears, read: Table 4A, medians of two or more assays, unit inferred, read-out: EC50 Transcriptional.
Where [3] appears, read: read-out: EC50 in the transcriptional assay for RORγ.
The mark [4] stands for this setting: Table 4A, peptide K1, no agonist present, medians of two or more assays, unit inferred, read-out: EC50 Biochemical.

The structures appear in SMILES notation. Values joined by “and” are separate entries in the source; they are usually repeats but may differ in a detail not shown here. Equal entries are not always repeated. Where two headings read alike, the source gives them in different places.

Data on 7 compounds can be found in patent publication US8389739B1, “Modulators of retinoid-related orphan receptor gamma” (Orphagen Pharmaceuticals, priority 2006, dated 2013).

T2 sequence (P51450 with tags, fused parts or gaps): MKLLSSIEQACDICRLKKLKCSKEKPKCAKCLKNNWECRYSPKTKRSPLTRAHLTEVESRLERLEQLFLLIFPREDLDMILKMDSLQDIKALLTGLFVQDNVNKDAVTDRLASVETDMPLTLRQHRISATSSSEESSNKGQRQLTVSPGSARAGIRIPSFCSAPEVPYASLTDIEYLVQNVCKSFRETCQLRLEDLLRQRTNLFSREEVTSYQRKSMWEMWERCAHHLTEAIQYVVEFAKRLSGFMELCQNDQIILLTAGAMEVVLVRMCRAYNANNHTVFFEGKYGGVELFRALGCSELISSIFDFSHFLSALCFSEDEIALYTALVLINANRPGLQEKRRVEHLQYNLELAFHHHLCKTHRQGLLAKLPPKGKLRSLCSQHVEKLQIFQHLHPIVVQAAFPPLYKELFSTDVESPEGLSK

With `CC(=O)O[C@H]1CC[C@@]2(C)C(CC[C@]3(C)C2C(=O)C=C2C4[C@@H](C)[C@H](C)CC[C@]4(C(=O)O)CC[C@]23C)C1(C)C` (stereo in doubt) [OR-13571, 10-Acetoxy-1,2,6a,6b,9,9,12a-heptamethyl-13-oxo-1,3,4,5,6,6a,6b,7,8,8a,9,10,11,12,12a,12b,13,14b-octadecahydro-2H-picene-4a-carboxylic acid], the EC50 on hPPARγ (setting [1]) is over 10000 nM; on mRORγ (setting [2]) it was 0.27 µM; at mRORγ (setting [3]), under 1 µM; at mRORγ LBD (setting [4]), 1.2 µM.
`O=S(=O)(c1ccccc1)N(CC(F)(F)F)c1ccc(C(O)(C(F)(F)F)C(F)(F)F)cc1` [Compound T0901317, N-(2,2,2-Trifluoro-ethyl)-N-[4-(2,2,2-trifluoro-1-hydroxy-1-trifluoromethyl-ethyl)-phenyl]-benzenesulfonamide, reference compound]: at hPPARγ (setting [1]), the EC50 was over 10000 nM.
With `C[C@@H]1CC[C@@]2(OC1)O[C@H]1C[C@H]3[C@@H]4CC[C@H]5C[C@@H](O)CC[C@]5(C)[C@H]4C[C@@H](O)[C@]3(C)[C@H]1[C@@H]2C` [OR-885, 5α,20α, 22α, 25D-SPIROSTAN-3β, 12β-DIOL], the EC50 at hPPARγ was over 10000 nM; at mRORγ (Table 3, steroidal antagonists, read-out: Assay EC50 in micromolar transcriptional), 0.2 µM; at mRORγ (setting [3]), under 1 µM; at mRORγ LBD it was 2.5 µM.
Consider `CCN(c1ccc(C(O)(C(F)(F)F)C(F)(F)F)cc1)S(=O)(=O)c1ccc([N+](=O)[O-])cc1` [OR-1050, N-Ethyl-4-nitro-N-[4-(2,2,2-trifluoro-1-hydroxy-1-trifluoromethyl-ethyl)-phenyl]-benzenesulfonamide], for which the EC50 at hPPARγ (setting [1]) was over 10000 nM; on mRORγ (Table 1, antagonists, inhibition of basal Gal4-mRORγ transcription in CHO cells, read-out: Assay EC50 in micromolar at mRORγ Transcriptional), 0.26 µM; at mRORγ (Table 7, taken from Table 1, read-out: Assay EC50 in micromolar at mRORγ Transcriptional), 0.26 µM; on mRORγ (setting [3]), < 1 µM and 0.3 µM; on mRORγ LBD (Table 1, mRORγ and peptide K1, read-out: Assay EC50 in micromolar at mRORγ Biochemical), 0.9 µM; at mRORγ LBD (Table 7, taken from Table 1 (peptide K1), read-out: Assay EC50 in micromolar at mRORγ Biochemical), 0.9 µM.
For `COc1c(C=NNc2nc(N3CCCCC3)nc(N3CCCCC3)n2)cccc1[N+](=O)[O-]` [OR-2161, N-(4,6-Di-piperidin-1-yl-[1,3,5]triazin-2-yl)-N′-(2-methoxy-3-nitro-benzylidene)-hydrazine], the figures for the EC50 on hPPARγ (setting [1]), at mRORγ (setting [2]) and at mRORγ LBD (setting [4]) were over 10000 nM, 0.33 µM and 4.5 µM, respectively.
Consider `COC(C)CCC(C)C1CCC2C3CC(O)C4CC(O)CCC4(C)C3CCC12C` (stereo not shown) [OR-12872, 17-(4-Methoxy-1-methyl-pentyl)-10,13-dimethyl-hexadecahydro-cyclopenta[a]phenanthrene-3,6-diol], for which the EC50 is over 10000 nM at hPPARγ (setting [1]); 0.44 µM at mRORγ (Table 2, agonists, antagonist OR-376 (1.5 μM) added to reduce basal transcriptional activity, read-out: EC50 in micromolar at mRORγ Transcriptional); 0.052 µM at mRORγ LBD (Table 2, agonists, biotinylated peptide K, 50% of estimated maximum FRET signal, read-out: EC50 in micromolar at mRORγ Biochemical); under 0.1 µM at mRORγ LBD (agonist, read-out: potency in the biochemical assay).
Turning to `CCn1c(CNc2ccc(Cl)cc2)nnc1SCC(=O)Nc1cccc2ccccc12` [OR-133008, 2-{5-[(4-Chloro-phenylamino)-methyl]-4-ethyl-4H-[1,2,4]triazol-3-ylsulfanyl}-N-naphthalen-1-yl-acetamide], the results for the EC50 on hPPARγ (setting [1]), on mRORγ (setting [2]) and at mRORγ LBD (setting [4]) were over 10000 nM, 1.46 µM and 1.61 µM, respectively.
